ChEMBL document CHEMBL1221172, “Identification of a specific inhibitor of the histone methyltransferase SU(VAR)3-9” (Nat Chem Biol, 2005)
Activity calls are given as the source filed them. No cut-off for these calls is given here.

Key:
SL-2 [1] = experiment: Cytotoxicity against Drosophila melanogaster SL-2 cells seeded at high density assessed as growth retardation for 24 to 48 hrs up to 0.5 uM; assay type: cell-based
SL-2 [2] = experiment: Cytotoxicity against Drosophila melanogaster SL-2 cells seeded at low density; assay type: cell-based
[3] = biological target: T1, Histone-lysine N-methyltransferase Set8 (Drosophila melanogaster, UniProt Q9VFK6); experiment: Inhibition of Drosophila melanogaster PRSET2
T1 sequence (Q9VFK6 whole entry): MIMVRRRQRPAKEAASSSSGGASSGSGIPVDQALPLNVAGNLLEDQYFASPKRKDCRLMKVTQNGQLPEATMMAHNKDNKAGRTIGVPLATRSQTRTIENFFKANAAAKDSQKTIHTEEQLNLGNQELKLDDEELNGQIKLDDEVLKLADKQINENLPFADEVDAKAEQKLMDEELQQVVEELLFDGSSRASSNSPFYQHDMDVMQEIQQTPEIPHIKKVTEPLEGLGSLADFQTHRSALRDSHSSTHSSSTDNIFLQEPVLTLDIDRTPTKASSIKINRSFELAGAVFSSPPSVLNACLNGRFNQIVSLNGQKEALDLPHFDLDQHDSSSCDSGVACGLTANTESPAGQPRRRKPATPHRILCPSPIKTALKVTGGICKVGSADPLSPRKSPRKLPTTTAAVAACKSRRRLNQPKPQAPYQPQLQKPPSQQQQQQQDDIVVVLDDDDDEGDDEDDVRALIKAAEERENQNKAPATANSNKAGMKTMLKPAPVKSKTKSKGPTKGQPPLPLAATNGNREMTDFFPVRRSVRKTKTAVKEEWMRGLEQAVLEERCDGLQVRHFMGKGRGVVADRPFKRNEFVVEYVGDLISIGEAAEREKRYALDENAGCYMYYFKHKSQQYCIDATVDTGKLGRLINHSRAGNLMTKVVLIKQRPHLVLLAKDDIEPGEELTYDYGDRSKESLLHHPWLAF

[4] = Inhibition of Drosophila melanogaster SET7/9
[5] = biological target: Histone-lysine N-methyltransferase E(z) (Drosophila melanogaster, UniProt P42124); experiment: Inhibition of Drosophila melanogaster histone-lysine N-methyl-transferase E(z)
[6] = biological target: T2, Histone-lysine N-methyltransferase EHMT2 (Mus musculus, UniProt Q9Z148); experiment: Inhibition of mouse G9a
T2 sequence (Q9Z148 whole entry): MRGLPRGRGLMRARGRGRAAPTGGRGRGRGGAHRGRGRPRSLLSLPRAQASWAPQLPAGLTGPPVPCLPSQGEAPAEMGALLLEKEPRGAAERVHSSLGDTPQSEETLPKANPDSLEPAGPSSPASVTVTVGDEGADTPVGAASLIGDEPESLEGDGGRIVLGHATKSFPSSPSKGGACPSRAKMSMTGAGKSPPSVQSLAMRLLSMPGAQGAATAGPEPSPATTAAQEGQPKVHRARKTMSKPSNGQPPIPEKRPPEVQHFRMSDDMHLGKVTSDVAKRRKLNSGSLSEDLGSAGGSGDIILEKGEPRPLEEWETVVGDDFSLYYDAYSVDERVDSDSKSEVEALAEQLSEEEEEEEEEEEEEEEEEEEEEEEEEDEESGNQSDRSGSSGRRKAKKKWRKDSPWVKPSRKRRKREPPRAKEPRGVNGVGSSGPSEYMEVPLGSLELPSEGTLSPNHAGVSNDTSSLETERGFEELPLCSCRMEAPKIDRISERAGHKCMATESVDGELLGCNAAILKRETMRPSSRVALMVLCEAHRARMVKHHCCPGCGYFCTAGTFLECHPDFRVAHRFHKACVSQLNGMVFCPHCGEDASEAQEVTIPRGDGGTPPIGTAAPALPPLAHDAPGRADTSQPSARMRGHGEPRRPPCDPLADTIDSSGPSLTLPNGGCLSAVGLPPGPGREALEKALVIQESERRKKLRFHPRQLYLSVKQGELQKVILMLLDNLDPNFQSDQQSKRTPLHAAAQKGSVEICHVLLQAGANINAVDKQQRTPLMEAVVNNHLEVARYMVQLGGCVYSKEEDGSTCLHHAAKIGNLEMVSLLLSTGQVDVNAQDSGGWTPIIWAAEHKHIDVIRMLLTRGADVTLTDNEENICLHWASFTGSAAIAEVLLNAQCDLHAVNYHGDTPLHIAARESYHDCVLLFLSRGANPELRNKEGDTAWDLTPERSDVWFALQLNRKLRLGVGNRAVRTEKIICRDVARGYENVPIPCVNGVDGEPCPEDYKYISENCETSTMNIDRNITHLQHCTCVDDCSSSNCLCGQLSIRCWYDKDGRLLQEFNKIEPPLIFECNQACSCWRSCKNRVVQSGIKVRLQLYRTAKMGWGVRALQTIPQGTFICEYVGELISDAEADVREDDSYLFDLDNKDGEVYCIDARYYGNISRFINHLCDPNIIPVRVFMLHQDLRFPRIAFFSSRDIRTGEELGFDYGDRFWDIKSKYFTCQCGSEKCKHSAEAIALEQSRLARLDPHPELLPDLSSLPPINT

[7] = biological target: T3, Histone-lysine N-methyltransferase, H3 lysine-9 specific dim-5 (Neurospora crassa, UniProt Q8X225); experiment: Inhibition of Neurospora crassa DIM5
T3 sequence (Q8X225 whole entry): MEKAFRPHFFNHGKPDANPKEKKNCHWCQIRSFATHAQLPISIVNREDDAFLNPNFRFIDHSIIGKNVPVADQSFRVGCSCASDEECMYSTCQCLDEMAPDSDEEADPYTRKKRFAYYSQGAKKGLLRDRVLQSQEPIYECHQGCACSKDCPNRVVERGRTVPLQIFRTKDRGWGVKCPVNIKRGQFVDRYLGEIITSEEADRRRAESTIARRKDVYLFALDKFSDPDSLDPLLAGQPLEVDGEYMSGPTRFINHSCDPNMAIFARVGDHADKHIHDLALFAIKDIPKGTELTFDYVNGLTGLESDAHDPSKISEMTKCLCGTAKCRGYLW

[8] = Inhibition of human SU(VAR)3-9
[9] = biological target: Histone-lysine N-methyltransferase Su(var)3-9 (Drosophila melanogaster, UniProt P45975); experiment: Inhibition of Drosophila melanogaster SU(VAR)3-9
[10] = biological target: Histone-lysine N-methyltransferase Su(var)3-9 (Drosophila melanogaster) (UniProt P45975); conditions: SL2, 0.5 uM
Description: Inhibition of SU(VAR)3-9 in Drosophila melanogaster SL2 cells assessed as inhibition of methylation at Lys36 in Histone H3 at 0.5 uM by MALDI-TOF MS

[11] = biological target: Histone-lysine N-methyltransferase Su(var)3-9 (Drosophila melanogaster) (UniProt P45975); conditions: SL2, 0.5 uM; remark: listed apart in the source
Description: Inhibition of SU(VAR)3-9 in Drosophila melanogaster SL2 cells assessed as inhibition of methylation at Lys27 in Histone H3 at 0.5 uM by MALDI-TOF MS

[12] = biological target: Histone-lysine N-methyltransferase Su(var)3-9 (Drosophila melanogaster) (UniProt P45975); conditions: SL2, 0.5 uM; remark: listed apart in the source
Description: Inhibition of SU(VAR)3-9 in Drosophila melanogaster SL2 cells assessed as inhibition of methylation at Lys4in Histone H3 at 0.5 uM by Western blot method

[13] = biological target: Histone-lysine N-methyltransferase Su(var)3-9 (Drosophila melanogaster) (UniProt P45975); conditions: SL2, 0.5 uM; remark: listed apart in the source
Description: Inhibition of SU(VAR)3-9 in Drosophila melanogaster SL2 cells assessed as inhibition of methylation at Lys79in Histone H3 at 0.5 uM by Western blot method

[14] = biological target: Histone-lysine N-methyltransferase Su(var)3-9 (Drosophila melanogaster) (UniProt P45975); conditions: SL2, 0.5 uM; remark: listed apart in the source
Description: Inhibition of SU(VAR)3-9 in Drosophila melanogaster SL2 cells assessed as inhibition of methylation at Lys36 in Histone H3 at 0.5 uM by Western blot method

[15] = biological target: Histone-lysine N-methyltransferase Su(var)3-9 (Drosophila melanogaster) (UniProt P45975); conditions: SL2, 0.5 uM; remark: listed apart in the source
Description: Inhibition of SU(VAR)3-9 in Drosophila melanogaster SL2 cells assessed as inhibition of methylation at Lys27 in Histone H3 at 0.5 uM by Western blot method

[16] = biological target: Histone-lysine N-methyltransferase Su(var)3-9 (Drosophila melanogaster) (UniProt P45975); conditions: SL2, 0.5 uM; remark: listed apart in the source
Description: Inhibition of SU(VAR)3-9 in Drosophila melanogaster SL2 cells assessed as reduction of H3K9me3 at 0.5 uM by immunostaining method

[17] = biological target: Histone-lysine N-methyltransferase Su(var)3-9 (Drosophila melanogaster) (UniProt P45975); conditions: SL2, 0.1 uM
Description: Inhibition of SU(VAR)3-9 in Drosophila melanogaster SL2 cells assessed as reduction of H3K9me2 at 0.1 uM after 5 days by MALDI-TOF MS seeded at 2.5 million cells/ml density

[18] = biological target: Histone-lysine N-methyltransferase Su(var)3-9 (Drosophila melanogaster) (UniProt P45975); conditions: SL2, 0.5 uM; remark: listed apart in the source
Description: Inhibition of SU(VAR)3-9 in Drosophila melanogaster SL2 cells assessed as reduction of H3K9me2 at 0.5 uM after 5 days by MALDI-TOF MS seeded at 2.5 million cells/ml density

[19] = biological target: Histone-lysine N-methyltransferase Su(var)3-9 (Drosophila melanogaster) (UniProt P45975); conditions: SL2, 0.5 uM; remark: listed apart in the source
Description: Inhibition of SU(VAR)3-9 in Drosophila melanogaster SL2 cells assessed as inhibition of methylation at Lys79in Histone H3 at 0.5 uM by MALDI-TOF MS

[20] = biological target: Histone-lysine N-methyltransferase Su(var)3-9 (Drosophila melanogaster) (UniProt P45975); conditions: SL2, 0.5 uM; remark: listed apart in the source
Description: Inhibition of SU(VAR)3-9 in Drosophila melanogaster SL2 cells assessed as inhibition of methylation at Lys4in Histone H3 at 0.5 uM by MALDI-TOF MS

Histone-lysine N-methyltransferase Su(var)3-9 (Drosophila melanogaster), sequence (P45975 whole entry): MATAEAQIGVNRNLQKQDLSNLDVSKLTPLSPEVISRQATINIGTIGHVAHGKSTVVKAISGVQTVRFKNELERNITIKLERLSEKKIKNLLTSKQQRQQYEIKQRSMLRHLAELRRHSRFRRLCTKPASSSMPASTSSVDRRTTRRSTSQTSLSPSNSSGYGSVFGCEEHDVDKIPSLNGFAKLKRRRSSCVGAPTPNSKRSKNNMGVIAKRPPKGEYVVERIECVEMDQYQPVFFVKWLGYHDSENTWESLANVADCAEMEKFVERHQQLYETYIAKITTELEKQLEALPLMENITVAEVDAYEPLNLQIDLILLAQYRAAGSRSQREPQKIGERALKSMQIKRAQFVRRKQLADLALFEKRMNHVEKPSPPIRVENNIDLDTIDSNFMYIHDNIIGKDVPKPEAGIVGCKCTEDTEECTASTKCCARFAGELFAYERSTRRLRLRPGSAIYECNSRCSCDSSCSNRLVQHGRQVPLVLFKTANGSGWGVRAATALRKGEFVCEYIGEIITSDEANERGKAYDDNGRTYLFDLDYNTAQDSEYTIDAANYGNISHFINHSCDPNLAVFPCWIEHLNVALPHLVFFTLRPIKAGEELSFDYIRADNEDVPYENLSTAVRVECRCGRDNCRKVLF
Histone-lysine N-methyltransferase Su(var)3-9, sequence (P45975 whole entry): as above
Histone-lysine N-methyltransferase E(z), sequence (P42124 whole entry): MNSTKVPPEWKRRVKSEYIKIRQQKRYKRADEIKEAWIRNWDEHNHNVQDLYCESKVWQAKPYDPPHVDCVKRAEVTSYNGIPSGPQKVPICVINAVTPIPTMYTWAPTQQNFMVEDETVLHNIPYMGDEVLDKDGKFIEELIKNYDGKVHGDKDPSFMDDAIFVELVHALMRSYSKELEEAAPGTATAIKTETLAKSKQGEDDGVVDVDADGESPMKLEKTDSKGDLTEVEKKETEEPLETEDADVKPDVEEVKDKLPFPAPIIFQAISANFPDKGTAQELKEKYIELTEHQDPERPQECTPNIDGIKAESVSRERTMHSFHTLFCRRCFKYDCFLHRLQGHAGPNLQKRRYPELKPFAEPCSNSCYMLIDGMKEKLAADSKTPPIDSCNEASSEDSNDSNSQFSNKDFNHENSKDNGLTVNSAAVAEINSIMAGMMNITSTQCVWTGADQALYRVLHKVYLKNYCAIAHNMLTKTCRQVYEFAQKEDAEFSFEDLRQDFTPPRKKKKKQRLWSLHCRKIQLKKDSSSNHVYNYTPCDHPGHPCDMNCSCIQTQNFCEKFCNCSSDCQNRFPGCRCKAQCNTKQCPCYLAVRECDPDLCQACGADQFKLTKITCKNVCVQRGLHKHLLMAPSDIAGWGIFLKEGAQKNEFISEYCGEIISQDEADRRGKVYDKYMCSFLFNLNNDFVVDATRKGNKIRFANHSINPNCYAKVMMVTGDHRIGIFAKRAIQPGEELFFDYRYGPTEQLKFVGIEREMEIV

CN1C(=O)[C@@]23C[C@]4([C@]56C[C@@]78SS[C@@](CO)(C(=O)N7[C@H]5Nc5ccccc56)N(C)C8=O)c5ccccc5N[C@@H]4N2C(=O)[C@]1(CO)SS3 [CHAETOCIN]
Activity (SL-2 [1]): Non-toxic | Activity (SL-2 [2]): Toxic | IC50 [3]: > 180 µM | IC50 [4]: > 180 µM | IC50 [5]: > 90 µM | IC50 [6]: 2.5 µM | IC50 [7]: 3 µM | IC50 [8]: 0.8 µM | IC50 [9]: 0.6 µM | inhibition [10]: inactive | inhibition [11]: inactive | inhibition [12]: inactive | inhibition [13]: inactive | inhibition [14]: inactive | inhibition [15]: inactive | inhibition [16]: Active | inhibition [17]: Active | inhibition [18]: Active | inhibition [19]: inactive | inhibition [20]: inactive
